This passage reports EC50 results from patent US20250115563A1, “MODULATORS OF THE INTEGRATED STRESS PATHWAY” (Calico Life Sciences LLC, priority 2017, published 2025).

For this assay, the system named is HEK293T cells carrying the ATF4 luciferase reporter. The assay can be described thus: ATF4-Luc assay (in vitro model of VWMD). It is filed as cell-based. To be noted: Homo sapiens, HEK-293T; HEK293T cells with ATF4 5'-UTR firefly luciferase reporter; 1 μg/mL tunicamycin; 7 hours; One Glo luminescence. The protocol: In order to test exemplary compounds of the invention in a cellular context, a stable VWMD cell line was first constructed. The ATF4 reporter was prepared by fusing the human full-length ATF4 5′-UTR (NCBI Accession No. BC022088.2) in front of the firefly luciferase (FLuc) coding sequence lacking the initiator methionine as described in Sidrauski et al (eLife 2013). The construct was used to produce recombinant retroviruses using standard methods and the resulting viral supernatant was used to transduce HEK293T cells, which were then subsequently selected with puromycin to generate a stable cell line.
HEK293T cells carrying the ATF4 luciferase reporter were plated on polylysine coated 384-well plates (Greiner Bio-one) at 30,000 cells per well. Cells were treated the next day with 1 μg/mL tunicamycin and 200 nM of a compound of Formula (I) for 7 hours. Luminescence was measured using One Glo (Promega) as specified by the manufacturer. Cells were maintained in DMEM with L-glutamine supplemented with 10% heat-inactivated FBS (Gibco) and Antibiotic-Antimycotic solution (Gibco).
Table 2 below summarizes the EC50 data obtained using the ATF4-Luc assay for exemplary compounds of the invention.
On the technique in general: Reporter assays use an easily measured gene product as a stand-in for the process of interest.
Take `O=C(COc1ccc(Cl)c(F)c1)NC12CCC(c3nnc(Oc4ccc(Cl)c(F)c4)o3)(CC1)C(O)C2` (stereo not drawn) [Compound 170, 2-(4-chloro-3-fluorophenoxy)-N-{4-[5-(4-chloro-3-fluorophenoxy)-1,3,4-oxadiazol-2-yl]-3-hydroxybicyclo[2.2.2]octan-1-yl}acetamide]: the EC50 (commonly the concentration giving half of the maximal effect) is below 50 nM.
Then `O=C(COc1ccc(Cl)c(F)c1)NC12CCC(c3nnc(Oc4ccc(Cl)c(F)c4)o3)(CC1)[C@H](O)C2` [Compound 171, 2-(4-chloro-3-fluorophenoxy)-N-{(3R)-4-[5-(4-chloro-3-fluorophenoxy)-1,3,4-oxadiazol-2-yl]-3-hydroxybicyclo[2.2.2]octan-1-yl}acetamide], with below 50 nM; and `O=C(COc1ccc(Cl)c(F)c1)NC12CCC(c3nnc(Oc4ccc(Cl)c(F)c4)o3)(CC1)[C@@H](O)C2` [Compound 172, 2-(4-chloro-3-fluorophenoxy)-N-{(3S)-4-[5-(4-chloro-3-fluorophenoxy)-1,3,4-oxadiazol-2-yl]-3-hydroxybicyclo[2.2.2]octan-1-yl}acetamide], with below 50 nM.
